Series [1] in a line: pharmacokinetics (half-life). Particulars: rat, in vivo; "in rats" printed for the active metabolite (II) only; read-out: t½ (converted).
The test system of series [2] is Antibody Induced Myasthenia Gravis Model in Female Lewis Rats. The series can be described thus: treadmill exercise capacity test in antibody induced myasthenia gravis model. Format: in vivo. Particulars: 2 h post-dosing of repeated oral dosage on day 3 (72 h after antibody); levosimendan 0.25 mg/kg, active metabolite (II) 0.025 mg/kg; FIG. 2. As to the method:
(§1) The effects of levosimendan and its active metabolite (II) on skeletal muscle weakness were studied in an experimental model of Myasthenia Gravis (Russell A J et al., Nat Med 18 (3), 2012, 452-5). Myasthenia Gravis was induced in female Lewis rats by injecting 500 μg/kg of nAChRα1/3/5 antibody (SC-58604, Santa Cruz Biotechnology) intraperitoneally on day 0. Animals with 40-70% drop in muscle strength from baseline at 48 h after administration of the antibody were randomized into treatment groups: 1) Vehicle control (n=6) (0.5% Methocel 5 ml/kg orally), 2) Levosimendan (n=6) (0.25 mg/kg orally), 3) Active metabolite (II) (n=6) (0.025 mg/kg orally).
Exercise capacity measurements were performed with airtight treadmill (Accupacer treadmill, Accuscan Instruments, USA) connected to a respiratory gas analysing system. Rehearsals and exercise capacity measurements were started with familiarising the rats with the treadmill chambers for 15 minutes (restmill). The exercise program consisted of 15 min running at 10 m/min until the rat was incapable to keep up the speed despite of electric shock motivation. Rats were trained for the test three times one day before and twice on the day of antibody injection. Effects of different drug treatments on treadmill responses were measured 1 h and 2 h after oral treatment on day 3 (72 h after induction of Myasthenia Gravis).

Series [3] shares this test system. In words: accelerated rotating rod test (Rotarod) in antibody induced myasthenia gravis model. Format: in vivo. Particulars: single oral dosage on day 2 (48 h after antibody); levosimendan 0.25 mg/kg, active metabolite (II) 0.025 mg/kg; measured 0.5 h, 1 h, 2 h after treatment; FIG. 1. As to the method: as §1
Coordination, balance, and motor skill acquisition were tested using an accelerated rotating rod test (Rotarod, Ugo Basile, Comerio, Italy). Rats were placed on a rod that accelerated smoothly from 4 to 40 rpm over a period of 5 min. The length of time that each animal was able to stay on the rod was recorded. Three consecutive measurements were performed. Rats were trained for the test four times one day before and twice on the day of antibody injection. Effects of different drug treatments on Rotarod response were measured 0.5 h, 1 h, and 2 h after oral treatment on day 2, i.e. 48 hours after the induction of Myasthenia Gravis.

The text below walks through data of patent US10357492B2, “Levosimendan for use in the treatment of motor neuron diseases (E.G. ALS)” (Orion Corporation, priority 2014, dated 2019).

Molecules are shown by their SMILES.

`CC(=O)Nc1ccc(C2=NNC(=O)C[C@H]2C)cc1` [active metabolite (II), (R)—N-[4-(1,4,5,6-tetrahydro-4-methyl-6-oxo-3-pyridazinyl)phenyl]-acetamide]: the half-life in series [1] was 5 h. Further, the “effect on skeletal muscle function in treadmill test (exercise duration)” value in series [2] was “positive effect”. The “effect on muscle function in Rotarod test (time able to stay on the rotating rod)” value in series [3] was “acute and transient improvement in muscle function”.
On to `CC1CC(=O)NN=C1c1ccc(NN=C(C#N)C#N)cc1` (single isomer, unassigned) [Levosimendan, [[4-(1,4,5,6-tetrahydro-4-methyl-6-oxo-3-pyridazinyl)phenyl]hydrazono]propanedinitrile], for which the half-life in series [1] is 0.7 h. In series [2], the “effect on skeletal muscle function in treadmill test (exercise duration)” value is “positive effect”. In addition, the “effect on muscle function in Rotarod test (time able to stay on the rotating rod)” value in series [3] was “acute and transient improvement in muscle function”.
